Measured values taken from article PMC11995724, “Antibiotic target discovery by integrated phenotypic and activity-based profiling of electrophilic fragments” (Cell chemical biology, 2025).
Where a name gives a salt, the structure may show the parent alone.

Experiment: in vitro
Details: human, hek293t cells

Compound	viability at 48 h, 25 µM [%]
C=CCNC(=O)C(C#N)=Cc1cc(F)ccc1F [9-H07, 2-cyano-3-(2,5-difluorophenyl)-N-(prop-2-en-1-yl)prop-2-enamide]	111
O=C(CCl)N(Cc1ccc(F)cc1)C12CC3CC(CC(C3)C1)C2 [4-B11, N-(adamantan-1-yl)-2-chloro-N-[(4-fluorophenyl)methyl]acetamide]	-0.169
CC(Cl)C(=O)NC(c1cccc(C(F)(F)F)c1)c1nnc[nH]1 (centres unmarked) [7-M17, 2-chloro-N-[(4H-1,2,4-triazol-3-yl)[3-(trifluoromethyl)phenyl]methyl]propanamide]	75.1
COc1ccc(C=C(C#N)C(=O)Nc2ccccc2C(=O)O)cc1O [9-A18, 2-[2-cyano-3-(3-hydroxy-4-methoxyphenyl)prop-2-enamido]benzoic acid]	104
C=CC(=O)N1CCC(C(=O)Nc2ccc(N(C)C(C)=O)cc2)CC1 [2-D08, N-[4-(N-methylacetamido)phenyl]-1-(prop-2-enoyl)piperidine-4-carboxamide]	81.5
O=C(CCl)NCc1ccccc1CS(=O)(=O)N1CCOCC1 [4-G08, 2-chloro-N-({2-[(morpholine-4-sulfonyl)methyl]phenyl}methyl)acetamide]	0.79
N#CC(=Cc1ccc2c(c1)OCO2)C(=O)NCc1ccco1 [9-A15, 3-(1,3-dioxaindan-5-yl)-2-cyano-N-[(furan-2-yl)methyl]prop-2-enamide]	119
CC1CN(CCCNC(=O)CCl)CC(C)O1 (centres unmarked) [6-G11, 2-chloro-N-[3-(2,6-dimethylmorpholin-4-yl)propyl]acetamide hydrochloride]	116
CC(Cl)C(=O)N1CCC(N(C)Cc2cc(=O)[nH]c(N(C)C)n2)C1 (centres unmarked) [7-E18, 6-({[1-(2-chloropropanoyl)pyrrolidin-3-yl](methyl)amino}methyl)-2-(dimethylamino)-3,4-dihydropyrimidin-4-one]	72.3
O=C(CCl)NCc1nn(-c2ccccc2)c2c1CCC2 [7-B06, 2-chloro-N-({1-phenyl-1H,4H,5H,6H-cyclopenta[c]pyrazol-3-yl}methyl)acetamide]	0.565
CC(Cl)C(=O)NCCc1cnc2c(Cl)cnn2c1 (centres unmarked) [7-M18, 2-chloro-N-(2-{3-chloropyrazolo[1,5-a]pyrimidin-6-yl}ethyl)propanamide]	90.6
CC(Cl)C(=O)Nc1ccc([N+](=O)[O-])cc1C#N (centres unmarked) [5-I15, 2-chloro-N-(2-cyano-4-nitrophenyl)propanamide]	78.6
C=CC(=O)N1CCC(n2ncc3ccccc32)CC1 [1-K22, 1-[4-(1H-indazol-1-yl)piperidin-1-yl]prop-2-en-1-one]	94.9
CC(Cl)C(=O)N(C)Cc1cc(C(C)(C)C)[nH]n1 (centres unmarked) [7-B21, N-[(5-tert-butyl-1H-pyrazol-3-yl)methyl]-2-chloro-N-methylpropanamide]	80.5
C=CCNC(=O)C(C#N)=Cc1ccc(C)c(C)c1 [9-D21, 2-cyano-3-(3,4-dimethylphenyl)-N-(prop-2-en-1-yl)prop-2-enamide]	110
Cc1cc(C=C(C#N)C(=O)Nc2ccccn2)c(C)n1CC(C)C [9-J21, 2-cyano-3-[2,5-dimethyl-1-(2-methylpropyl)-1H-pyrrol-3-yl]-N-(pyridin-2-yl)prop-2-enamide]	87.2
CC(C)c1ccc(C(NC(=O)CCl)C(C)C)cc1 (centres unmarked) [4-O14, 2-chloro-N-{2-methyl-1-[4-(propan-2-yl)phenyl]propyl}acetamide]	0.576
N#CC(=Cc1ccc(O)cc1)C(=O)Nc1ccc(Cl)cc1Cl [9-G22, 2-cyano-N-(2,4-dichlorophenyl)-3-(4-hydroxyphenyl)prop-2-enamide]	82.3
COc1ccc(C(NC(=O)CCl)c2ccccc2)cc1 (centres unmarked) [4-J11, 2-chloro-N-[(4-methoxyphenyl)(phenyl)methyl]acetamide]	0.827

Compound	viability at 48 h, 25 µM [%]
Cc1noc(C2CN(C(=O)C(C)Cl)C2)n1 (centres unmarked) [7-G04, 2-chloro-1-[3-(3-methyl-1,2,4-oxadiazol-5-yl)azetidin-1-yl]propan-1-one]	92.2
CC(Cl)C(=O)N(C)C1CCN(C(=O)c2ccccc2)CC1 (centres unmarked) [6-B18, N-(1-benzoylpiperidin-4-yl)-2-chloro-N-methylpropanamide]	95.9
CC(Cl)C(=O)N1CCCCC1c1cnn(C)c1 (centres unmarked) [7-A03, 2-chloro-1-[2-(1-methyl-1H-pyrazol-4-yl)piperidin-1-yl]propan-1-one]	98.8
O=C(CCl)NC(Cc1ccccc1)c1ccccc1F (centres unmarked) [7-N10, 2-chloro-N-[1-(2-fluorophenyl)-2-phenylethyl]acetamide]	0.701
COc1ccc(CCNC(=O)CCl)cc1 [5-H12, 2-chloro-N-[2-(4-methoxyphenyl)ethyl]acetamide]	0.726
CCN(CC)S(=O)(=O)c1cc(NC(=O)C(C)Cl)ccc1C (centres unmarked) [4-P09, 2-chloro-N-[3-(diethylsulfamoyl)-4-methylphenyl]propanamide]	69.6
C=CC(=O)NC(C)c1ccc(-n2ccnn2)cc1 (centres unmarked) [3-B13, N-{1-[4-(1H-1,2,3-triazol-1-yl)phenyl]ethyl}prop-2-enamide]	59.2
N#CC(=Cc1ccco1)C(=O)NS(=O)(=O)c1cccc2cnccc12 [9-H20, 2-cyano-3-(furan-2-yl)-N-(isoquinoline-5-sulfonyl)prop-2-enamide]	105
CC(O)=C(C#N)C(=O)Nc1ccc(C(F)(F)F)cc1 [9-A05, 2-cyano-3-hydroxy-N-[4-(trifluoromethyl)phenyl]but-2-enamide]	90.6
C=CC(=O)NCc1cccc(CNS(C)(=O)=O)c1 [3-F11, N-{[3-(methanesulfonamidomethyl)phenyl]methyl}prop-2-enamide]	95.9
Cc1cc(CNC(=O)CCl)[nH]n1 [7-L22, 2-chloro-N-[(3-methyl-1H-pyrazol-5-yl)methyl]acetamide]	90.6
CC(Cl)C(=O)Nc1ccc(F)c(F)c1 (centres unmarked) [6-P08, 2-chloro-N-(3,4-difluorophenyl)propanamide]	101
C=CC(=O)Nc1conc1-c1ccccc1 [1-I09, N-(3-phenyl-1,2-oxazol-4-yl)prop-2-enamide]	59.1
Cc1ccc(NC(=O)CCl)cc1[N+](=O)[O-] [4-M13, 2-chloro-N-(4-methyl-3-nitrophenyl)acetamide]	59.2
Cc1c(C=C(C#N)C(=O)Nc2cnc3ccccc3c2)cc(C#N)n1C [9-N15, 2-cyano-3-(5-cyano-1,2-dimethyl-1H-pyrrol-3-yl)-N-(quinolin-3-yl)prop-2-enamide]	111
C=CC(=O)N(C)Cc1cc(-c2ccccc2)[nH]n1 [1-B05, N-methyl-N-[(5-phenyl-1H-pyrazol-3-yl)methyl]prop-2-enamide]	92.7
Cc1csc(C(C#N)C(=O)CCl)n1 (centres unmarked) [10-D12, 4-chloro-2-(4-methyl-1,3-thiazol-2-yl)-3-oxobutanenitrile]	6.6
CCc1nc2c(s1)C(N(C)C(=O)C(C)Cl)CCC2 (centres unmarked) [7-N17, 2-chloro-N-(2-ethyl-4,5,6,7-tetrahydro-1,3-benzothiazol-7-yl)-N-methylpropanamide]	84.1
N#CC(=Cc1cc2cc(F)ccc2o1)C(=O)NC(N)=O [8-C22, {2-cyano-2-[(5-fluoro-1-benzofuran-2-yl)methylidene]acetyl}urea]	79.1
